Reference: ChEMBL document CHEMBL5620416, “Design, synthesis and development of a dual inhibitor of Topoisomerase 1 and poly (ADP-ribose) polymerase 1 for efficient killing of cancer cells” (Eur J Med Chem, 2023)
The source made the active and inactive calls. The calls are words filed in the database; no cut-off is given here.

Tests used:
[1] = test system: DNA topoisomerase 1/Deoxyribonucleic acid (Homo sapiens); assay: Induction of TOP1-DNA covalent complex stabilization in human HCT-116 cells at 10 to 20 uM after 4 to 6 hrs by RADAR assay; type: cell-based; conditions: dose 10-20 µM, time 4-6 hrs
HCT-116 [2] = assay: Induction of cell cycle arrest in human HCT-116 cells assessed as accumulation of cells at G2 phase at 5 uM incubated for 48 hrs by PI staining based flow cytometry analysis (reference value: 26%); type: functional
HCT-116 [3] = assay: Induction of cell cycle arrest in human HCT-116 cells assessed as accumulation of cells at G2 phase at 20 uM incubated for 48 hrs by PI staining based flow cytometry analysis (reference value: 26%); type: functional
HCT-116 [4] = assay: Induction of cell cycle arrest in human HCT-116 cells assessed as accumulation of cells at Sub-G1 phase at 10 uM incubated for 48 hrs by PI staining based flow cytometry analysis (reference value: 2.7 +/- 0.4%); type: functional
HCT-116 [5] = assay: Induction of DNA double stranded break in human HCT-116 cells assessed as increase in 53BP1 level at 20 uM after 4 to 8 hrs by immunofluorescence assay; type: functional, cell-based; conditions: time 4-8 hrs
[6] = test system: DNA topoisomerase 1/Deoxyribonucleic acid (Homo sapiens); assay: Induction of TOP1-DNA covalent complex stabilization in human HCT-116 cells at 10 to 20 uM by RADAR assay; type: cell-based; conditions: dose 10-20 µM, time 2-6 hrs, TDE = time-dependent effect
[7] = test system: DNA topoisomerase 1/Deoxyribonucleic acid (Homo sapiens); assay: Induction of TOP1-DNA covalent complex degradation in human HCT-116 cells at 20 uM measured upto 24 hrs by RADAR assay; type: cell-based
[8] = molecular target: T1, DNA topoisomerase 1 (Homo sapiens) (UniProt P11387); assay: Inhibition of recombinant human Top1 assessed as reduction in plasmid relaxation at 10 to 20 uM using pUC19 plasmid DNA as substrate measured upto 30 mins by ethidium bromide staining based assay; conditions: dose 10-20 µM
T1 sequence (whole entry): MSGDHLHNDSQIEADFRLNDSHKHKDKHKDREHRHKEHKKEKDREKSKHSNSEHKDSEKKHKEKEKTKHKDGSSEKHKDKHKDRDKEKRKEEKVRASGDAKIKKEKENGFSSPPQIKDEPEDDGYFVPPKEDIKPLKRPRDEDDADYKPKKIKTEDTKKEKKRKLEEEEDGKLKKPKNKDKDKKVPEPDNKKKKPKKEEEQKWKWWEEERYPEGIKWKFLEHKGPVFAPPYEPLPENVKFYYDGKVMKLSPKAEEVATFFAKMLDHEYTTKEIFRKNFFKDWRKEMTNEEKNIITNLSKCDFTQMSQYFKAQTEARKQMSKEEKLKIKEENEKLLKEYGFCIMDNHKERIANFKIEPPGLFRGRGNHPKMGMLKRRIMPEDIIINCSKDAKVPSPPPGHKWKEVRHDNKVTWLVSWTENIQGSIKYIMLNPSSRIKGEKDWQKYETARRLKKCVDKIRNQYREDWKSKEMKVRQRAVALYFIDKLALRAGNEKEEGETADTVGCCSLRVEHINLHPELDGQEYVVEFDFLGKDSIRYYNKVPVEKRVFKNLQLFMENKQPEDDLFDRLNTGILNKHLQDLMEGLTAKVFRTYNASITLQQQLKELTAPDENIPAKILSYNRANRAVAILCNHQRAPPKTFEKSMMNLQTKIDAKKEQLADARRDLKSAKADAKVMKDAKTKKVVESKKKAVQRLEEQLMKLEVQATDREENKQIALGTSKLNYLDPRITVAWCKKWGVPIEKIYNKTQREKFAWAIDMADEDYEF

HCT-116 [9] = assay: Induction of cell cycle arrest in human HCT-116 cells assessed as accumulation of cells at Sub-G1 phase at 5 uM incubated for 24 hrs by PI staining based flow cytometry analysis (reference value: 1.1 +/- 0.1%); type: functional
[10] = Stability in human plasma assessed as compound degradation incubated for 15 mins by HPLC analysis; type: ADME, cell-free; conditions: read-out: Drug degradation
HCT-116 [11] = assay: Cytotoxicity against human HCT-116 cells incubated for 72 hrs by MTT assay; type: functional, cell-based; conditions: HCT-116, 72 h
[12] = molecular target: Poly [ADP-ribose] polymerase 1 (Homo sapiens) (UniProt P09874); assay: Inhibition of recombinant human PARP1 at 30 uM incubated for 10 mins relative to control
Chain of Poly [ADP-ribose] polymerase 1 (Homo sapiens) (P09874 whole entry): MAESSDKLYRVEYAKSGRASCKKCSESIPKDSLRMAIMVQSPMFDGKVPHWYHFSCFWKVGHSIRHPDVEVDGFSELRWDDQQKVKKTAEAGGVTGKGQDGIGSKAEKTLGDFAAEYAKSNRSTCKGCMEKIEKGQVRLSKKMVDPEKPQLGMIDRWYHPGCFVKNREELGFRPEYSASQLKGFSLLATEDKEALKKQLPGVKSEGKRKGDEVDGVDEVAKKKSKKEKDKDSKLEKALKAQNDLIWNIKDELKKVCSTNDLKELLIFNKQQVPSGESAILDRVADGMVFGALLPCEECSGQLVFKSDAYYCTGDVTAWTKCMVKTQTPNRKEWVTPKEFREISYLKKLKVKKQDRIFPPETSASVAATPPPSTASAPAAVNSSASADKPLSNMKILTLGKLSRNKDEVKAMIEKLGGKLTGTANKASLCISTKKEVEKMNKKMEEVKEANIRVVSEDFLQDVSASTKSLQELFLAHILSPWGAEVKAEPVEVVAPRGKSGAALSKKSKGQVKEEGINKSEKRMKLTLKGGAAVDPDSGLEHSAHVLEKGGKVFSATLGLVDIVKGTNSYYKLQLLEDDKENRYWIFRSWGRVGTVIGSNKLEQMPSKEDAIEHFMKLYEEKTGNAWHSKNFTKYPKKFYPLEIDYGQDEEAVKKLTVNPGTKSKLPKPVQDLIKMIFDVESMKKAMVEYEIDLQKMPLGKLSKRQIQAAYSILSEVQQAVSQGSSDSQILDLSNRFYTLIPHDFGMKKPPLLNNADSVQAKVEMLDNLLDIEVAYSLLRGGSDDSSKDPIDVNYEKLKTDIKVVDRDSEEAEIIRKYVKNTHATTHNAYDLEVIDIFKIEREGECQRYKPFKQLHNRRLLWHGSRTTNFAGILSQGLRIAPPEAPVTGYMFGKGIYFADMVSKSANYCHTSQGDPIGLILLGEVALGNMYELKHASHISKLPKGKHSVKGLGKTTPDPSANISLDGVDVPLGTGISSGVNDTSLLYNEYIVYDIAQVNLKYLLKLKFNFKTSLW

HCT-116 [13] = assay: Induction of PARP1 trapping in human HCT-116 cells assessed as change in PARP1 level in chromatin fraction at 20 uM incubated for 4 to 8 hrs by SDS PAGE analysis; type: functional, cell-based; conditions: time 4-8 hrs
MIA PaCa-2 [14] = assay: Cytotoxicity against human MIA PaCa-2 cells at less than 10 uM incubated for 7 to 10 days by crystal violet staining based assay; type: functional, cell-based; conditions: time 7-10 day
MIA PaCa-2 [15] = assay: Cytotoxicity against human MIA PaCa-2 cells incubated for 72 hrs by MTT assay; type: functional, cell-based; conditions: MIA PaCa-2, 72 h
HCT-116 [16] = assay: Induction of cell cycle arrest in human HCT-116 cells assessed as accumulation of cells at Sub-G1 phase at 5 uM incubated for 48 hrs by PI staining based flow cytometry analysis (reference value: 2.7 +/- 0.4%); type: functional
[17] = test system: DNA topoisomerase 1/Deoxyribonucleic acid (Homo sapiens); assay: Induction of TOP1-DNA covalent complex stabilization in human HCT-116 cells after 2 to 6 hrs by RADAR assay; type: cell-based; conditions: dose 10-20 µM, time 2-6 hrs
HCT-116 [18] = assay: Induction of DNA double stranded break in human HCT-116 cells assessed as increase in gammaH2AX level at 20 uM after 4 to 8 hrs by immunofluorescence assay; type: functional, cell-based; conditions: time 4-8 hrs
Calf thymus DNA = assay: Displacement of EtBr from calf thymus pUC19 DNA preincubated with EtBr for 15 mins followed by compound addition and measured after 30 mins by […] staining based fluorescence assay; type: nucleic-acid assay; conditions: Bos taurus, dose 100-300 µM
[19] = molecular target: Poly [ADP-ribose] polymerase 1 (Homo sapiens) (UniProt P09874); assay: Inhibition of recombinant human PARP1 at 20 uM incubated for 10 mins relative to control
HCT-116 [20] = assay: Induction of cell cycle arrest in human HCT-116 cells assessed as accumulation of cells at S phase at 20 uM incubated for 48 hrs by PI staining based flow cytometry analysis (reference value: 17%); type: functional
[21] = test system: DNA topoisomerase 1/Deoxyribonucleic acid (Homo sapiens); assay: Induction of TOP1-DNA covalent complex stabilization in human HCT-116 cells after 2 to 8 hrs by immunofluorescence microscopic assay; type: cell-based; conditions: dose 20.0 µM, time 2-8 hrs
HCT-116 [22] = assay: Induction of cell cycle arrest in human HCT-116 cells assessed as accumulation of cells at S phase at 5 uM incubated for 48 hrs by PI staining based flow cytometry analysis (reference value: 17%); type: functional
HCT-116 [23] = assay: Induction of cell cycle arrest in human HCT-116 cells assessed as accumulation of cells at Sub-G1 phase at 20 uM incubated for 48 hrs by PI staining based flow cytometry analysis (reference value: 2.7 +/- 0.4%); type: functional
[24] = molecular target: Poly [ADP-ribose] polymerase 1 (Homo sapiens) (UniProt P09874); assay: Inhibition of recombinant human PARP1 incubated for 10 mins; conditions: dose 10-30 µM
HCT-116 [25] = assay: Induction of cell cycle arrest in human HCT-116 cells incubated for 24 to 48 hrs by PI staining based flow cytometry analysis; type: functional; conditions: dose 5-20 µM, time 24-48 hrs
HCT-116 [26] = assay: Induction of cell cycle arrest in human HCT-116 cells assessed as accumulation of cells at S phase at 10 uM incubated for 48 hrs by PI staining based flow cytometry analysis (reference value: 17%); type: functional

Activity [1]: Active | Activity [6]: Tde | Activity [7]: Active | inhibition [8]: Active | metabolised at 0.25 h [10]: 20% | inhibition [12]: 35% | Activity [17]: Dose-Dependent Effect | Activity (Calf thymus DNA): Dose-Dependent Effect | inhibition [19]: 25% | Activity [21]: Dose-Dependent Effect | inhibition [24]: Dose-Dependent Effect
Structure (SMILES): O=C1c2cccc3cccc(c23)C(=O)N1CCSc1nnc(Cn2nc(Cc3ccc(F)cc3)c3ccccc3c2=O)o1
Activity (HCT-116 [2]): 29% | Activity (HCT-116 [3]): 34% | Activity (HCT-116 [4]): 44.2% | Activity (HCT-116 [5]): Active | Activity (HCT-116 [9]): 23.8% | IC50 (HCT-116 [11]): 4 µM | Activity (HCT-116 [13]): inactive | Activity (MIA PaCa-2 [14]): Active | IC50 (MIA PaCa-2 [15]): 4.5 µM | Activity (HCT-116 [16]): 35% | Activity (HCT-116 [18]): Active | Activity (HCT-116 [20]): 39% | Activity (HCT-116 [22]): 30% | Activity (HCT-116 [23]): 57% | Activity (HCT-116 [25]): Dose-Dependent Effect | Activity (HCT-116 [26]): 33%
